Test: xn = mol fraction of the nth substance listed
Conditions: 100 kPa

CCCC[N+](CCCC)(CCCC)CCCC.[Br-] + CCCCCCCCCCCCOS(=O)(=O)[O-].[Na+] + O
viscosity [mPa·s]
Conditions	x2 = 1.81e-06, x1 = 0.0001802	x2 = 3.61e-06, x1 = 0.0001802	x2 = 5.42e-06, x1 = 0.0001802	x2 = 7.23e-06, x1 = 0.0001802	x2 = 9.04e-06, x1 = 0.0001802	x2 = 1.084e-05, x1 = 0.0001802	x2 = 1.265e-05, x1 = 0.0001802	x2 = 1.446e-05, x1 = 0.0001802	x2 = 1.627e-05, x1 = 0.0001802	x2 = 1.807e-05, x1 = 0.0001802
293.15 K	1.023	1.024	1.026	1.027	1.028	1.029	1.029	1.03	1.03	1.03
298.15 K	0.916	0.919	0.92	0.921	0.922	0.922	0.923	0.924	0.924	0.925
303.15 K	0.8	0.801	0.802	0.802	0.803	0.803	0.803	0.803	0.804	0.804
308.15 K	0.72	0.721	0.722	0.723	0.724	0.724	0.724	0.725	0.725	0.725
313.15 K	0.654	0.655	0.656	0.657	0.657	0.657	0.657	0.657	0.657	0.658
318.15 K	0.6	0.601	0.601	0.601	0.602	0.602	0.602	0.602	0.602	0.603

CCCC[N+](CCCC)(CCCC)CCCC.[Br-] + CCCCCCCCCCCC[N+](C)(C)C.[Br-] + O
viscosity [mPa·s]
Conditions	x2 = 5.422e-05, x1 = 0.0001802	x2 = 0.0001084, x1 = 0.0001801	x2 = 0.0001626, x1 = 0.0001801	x2 = 0.0002169, x1 = 0.0001801	x2 = 0.0002711, x1 = 0.0001801	x2 = 0.0003252, x1 = 0.0001801	x2 = 0.0003794, x1 = 0.0001801	x2 = 0.0004336, x1 = 0.0001801	x2 = 0.0004878, x1 = 0.0001801	x2 = 0.000542, x1 = 0.0001801
293.15 K	1.056	1.057	1.059	1.061	1.061	1.062	1.062	1.063	1.063	1.063
298.15 K	0.939	0.942	0.943	0.945	0.946	0.946	0.948	0.949	0.95	0.951
303.15 K	0.824	0.825	0.826	0.826	0.827	0.827	0.828	0.828	0.828	0.828
308.15 K	0.742	0.744	0.745	0.746	0.746	0.746	0.747	0.747	0.747	0.747
313.15 K	0.675	0.676	0.677	0.677	0.678	0.678	0.678	0.678	0.678	0.679
318.15 K	0.62	0.621	0.621	0.621	0.622	0.622	0.622	0.622	0.622	0.623

Source: the CheMixHub ionic liquid set
